Results reported in ChEMBL document CHEMBL1800000, “Identification of non-amidine inhibitors of acid-sensing ion channel-3 (ASIC3)” (Bioorg Med Chem Lett, 2011).
Active and inactive are the calls of the source. The calls are words filed in the database; no cut-off is given here.

What was measured:
[1] = molecular target: T1, Acid-sensing ion channel 3 (Homo sapiens, UniProt Q9UHC3); assay: Inhibition of ASIC3 assessed as inhibition of peak current by electrophysiology method
T1 sequence (Q9UHC3 whole entry): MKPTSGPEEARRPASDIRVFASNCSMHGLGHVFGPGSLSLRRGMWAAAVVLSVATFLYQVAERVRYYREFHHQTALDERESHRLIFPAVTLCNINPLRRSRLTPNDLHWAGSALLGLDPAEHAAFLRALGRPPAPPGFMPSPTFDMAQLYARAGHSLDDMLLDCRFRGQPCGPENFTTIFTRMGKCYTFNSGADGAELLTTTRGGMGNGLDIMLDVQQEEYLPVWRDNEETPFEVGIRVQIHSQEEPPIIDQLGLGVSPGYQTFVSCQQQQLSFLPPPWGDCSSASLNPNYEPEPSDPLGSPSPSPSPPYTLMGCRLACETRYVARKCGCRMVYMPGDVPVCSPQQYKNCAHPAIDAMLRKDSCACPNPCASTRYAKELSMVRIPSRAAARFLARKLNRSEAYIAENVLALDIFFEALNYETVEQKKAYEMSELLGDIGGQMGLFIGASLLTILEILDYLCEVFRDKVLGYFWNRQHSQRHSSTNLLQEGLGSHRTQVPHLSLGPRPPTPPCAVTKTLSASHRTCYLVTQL

[2] = molecular target: T2, Acid-sensing ion channel 1 (Homo sapiens, UniProt P78348); assay: Inhibition of ASIC1a
T2 sequence (P78348 whole entry): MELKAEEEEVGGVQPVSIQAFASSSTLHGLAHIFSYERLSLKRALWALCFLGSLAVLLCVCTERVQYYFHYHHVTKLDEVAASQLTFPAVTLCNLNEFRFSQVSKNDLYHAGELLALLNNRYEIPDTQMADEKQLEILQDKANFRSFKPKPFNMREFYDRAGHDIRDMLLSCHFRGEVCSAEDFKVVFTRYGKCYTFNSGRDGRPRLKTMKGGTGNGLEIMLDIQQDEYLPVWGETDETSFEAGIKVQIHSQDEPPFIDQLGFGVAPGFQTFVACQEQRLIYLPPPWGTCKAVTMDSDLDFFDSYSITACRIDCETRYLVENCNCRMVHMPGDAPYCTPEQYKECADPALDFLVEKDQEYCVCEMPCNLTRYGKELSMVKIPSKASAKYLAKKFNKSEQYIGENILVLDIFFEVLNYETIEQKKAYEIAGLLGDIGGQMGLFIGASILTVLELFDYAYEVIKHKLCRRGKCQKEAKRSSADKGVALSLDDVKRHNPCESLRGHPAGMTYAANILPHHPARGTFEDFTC

Rattus norvegicus [3] = assay: Antihyperalgesic effect in complete Freund's adjuvant-induced Sprague-Dawley rat inflammatory pain model assessed as reversal of mechanical hypersensitivity at 100 mg/kg, po after 30 mins; format: functional, organism-based; design: dose 100 mg/kg
[4] = Plasma concentration in Sprague-Dawley rat at 100 mg/kg, po after 30 mins; format: ADME, organism-based; design: dose 100 mg/kg, route oral
Brain = assay: Drug uptake in Sprague-Dawley rat brain at 100 mg/kg, po; format: ADME, organism-based; design: dose 100 mg/kg, route oral; settings: in vivo, read-out: Drug uptake
[5] = Ratio of drug level in brain to plasma in Sprague-Dawley rat at 100 mg/kg, po; format: ADME, organism-based; design: dose 100 mg/kg, route oral; settings: read-out: BPR
[6] = Ratio of drug level in brain to plasma in […]; format: ADME; settings: rat, read-out: BPR
Rattus norvegicus [7] = assay: Induction of sedative activity in Sprague-Dawley rat at 100 mg/kg, po; format: organism-based; design: dose 100 mg/kg, route oral; settings: in vivo
Rattus norvegicus [8] = assay: Toxicity in Sprague-Dawley rat brain assessed as lethargy at 100 mg/kg, po; format: organism-based; design: dose 100 mg/kg, route oral; settings: in vivo
[9] = Inhibition of serotonin receptor
[10] = Inhibition of muscarinic receptor
[11] = Inhibition of adrenergic receptor
[12] = Inhibition of dopamine receptor

NCc1sc2cc(C#Cc3ccc4c(c3)CNCC4)ccc2c1Cl
IC50 [1]: 220 nM
IC50 [2]: 224 nM
Activity (Rattus norvegicus [3]): Active
concentration at 0.5 h [4]: 3.6 µM
concentration (Brain): 14 µM
Kp [5]: 6
Kp [6]: 15.4
Activity (Rattus norvegicus [7]): Toxic
Activity (Rattus norvegicus [8]): Toxic

NCc1sc2cc(C#Cc3ccc4c(c3)CN(Cc3ccccc3)CC4)ccc2c1Cl
IC50 [1]: 17100 nM

NCc1sc2cc(C#Cc3ccc4c(c3)CN(CC(F)F)CC4)ccc2c1Cl
IC50 [1]: 10200 nM

NCc1sc2cc(C#Cc3ccccc3)ccc2c1Cl
IC50 [1]: 2800 nM

CC1c2cc(C#Cc3ccc4c(Cl)c(CN)sc4c3)ccc2CCN1C (stereo unspecified)
IC50 [1]: 270 nM

CN(C)C1CCc2c(C#Cc3ccc4c(Cl)c(CN)sc4c3)cccc21 (stereo unspecified)
IC50 [1]: 190 nM

NCc1sc2cc(C#Cc3ccc4c(c3)CN(CC(F)(F)F)CC4)ccc2c1Cl
IC50 [1]: > 50000 nM

CN(C)C1CCCc2c(C#Cc3ccc4c(Cl)c(CN)sc4c3)cccc21 (stereo unspecified)
IC50 [1]: 230 nM

CCN1CCc2ccc(C#Cc3ccc4c(Cl)c(CN)sc4c3)cc2C1
IC50 [1]: 230 nM

CC(c1cccc(C#Cc2ccc3c(Cl)c(CN)sc3c2)c1)N(C)C (stereo unspecified)
IC50 [1]: 4300 nM

CC(C)N1CCc2ccc(C#Cc3ccc4c(Cl)c(CN)sc4c3)cc2C1
IC50 [1]: 310 nM

CC(C)C1c2cc(C#Cc3ccc4cc(C(=N)N)ccc4c3)ccc2CCN1C (stereo unspecified)
IC50 [1]: 460 nM
Kp [6]: 2.6
IC50 [9]: < 10000 nM
IC50 [10]: < 10000 nM
IC50 [11]: < 10000 nM
IC50 [12]: < 10000 nM

NCc1ccc2cc(C#Cc3ccccc3)ccc2c1
IC50 [1]: 4800 nM

CN1CCc2ccc(C#Cc3ccc4c(Cl)c(CN)sc4c3)cc2C1
IC50 [1]: 680 nM

NCc1sc2cc(C#Cc3cccc4c3CCCC4N3CCCC3)ccc2c1Cl (stereo unspecified)
IC50 [1]: 2500 nM

CC(C)(C)OC(=O)N1CCc2ccc(C#Cc3ccc4c(Cl)c(CN)sc4c3)cc2C1
IC50 [1]: > 50000 nM

N=C(N)c1ccc2cc(C#Cc3ccccc3)ccc2c1
IC50 [1]: 6300 nM

N=C(N)c1sc2cc(C#Cc3ccccc3)ccc2c1Cl
IC50 [1]: 3400 nM
